The results in this text go back to patent publication US11584744B2 (UNIVERSITY OF WASHINGTON, priority 2017, dated 2023).

Values after ≈ are worked out from the molar mass of the structure shown. Like-named read-outs stand apart in the source and are kept apart here.

In assay [1] the test system is S. aureus MSSA (ATCC 29213). As to the kind of experiment: MIC susceptibility testing. Format: cell-based, Staphylococcus aureus. The conditions noted are these: S. aureus ATCC 29213; for MIC: Staphylococcus aureus, read-out: (F) S. aureus (ATCC 29213) MIC.
Assay [2] relates to E. faecium VRE (ATCC 51559). As to the kind of experiment: MIC susceptibility testing. Format: cell-based, Enterococcus faecium. The following applies: E. faecium ATCC 51559; for MIC: Enterococcus faecium, read-out: (I) E. faecium (ATCC 51559) MIC. An excerpt: Media and culture conditions. Mueller Hinton broth (MHB), cation adjusted Mueller Hinton broth (CA-MHB), and Brain Heart Infusion broth (BHI) were purchased from Becton Dickinson (Franklin Lakes, N.J.). Tryptic soy agar (TSA) plates, TSA with 5% sheep blood plates, and CA-MHB with 3% laked horse blood were purchased from Remel (San Diego, Calif.). MHB was used to assay all Staphylococcus aureus strains. CA-MHB was used for Staphylococcus epidermidis, Enterococcus faecalis, Enterococcus faecium, Escherichia coli, and Pseudomonas aeruginosa. CA-MHB supplemented with 3% laked horse blood was used for Streptococcus pneumoniae and Streptococcus pyogenes. Staphylococcus, Enterococcus, Escherichia, and Pseudomonas strains were cultured at 37° C. with ambient air. Streptococcus strains were cultured in 37° C. with 5% CO2. Separate conditions for radiolabeled precursor uptake assays are described below.
Susceptibility testing: Minimum inhibitory concentration (MIC) determinations were performed in triplicate in 96-well round bottom microtiter plates (Corning, Corning N.Y.) as described by the Clinical and Laboratory Standards Institute (CLSI). Serial two-fold dilutions of compounds were added to plates in 50 μL volumes. An additional 50 μL of media containing bacterial cells (1×10^6 CFUs/mL) was then added to each well. Maximum DMSO concentrations were 0.5%. Plates were incubated at 37° C. for at least 18 h before reading the susceptibility result by optical absorbance (OD600) using a BioTek ELx800. The lowest concentration causing ≥90% growth inhibition compared to the untreated control was recorded as the MIC (and also corresponded to the visual MIC). MICs were measured at least twice and the higher value (if different) was recorded herein.

Another assay has as its target T1, MetRS (T. brucei) (Trypanosoma brucei brucei, UniProt Q38C91).
T1 sequence (Q38C91 1-773): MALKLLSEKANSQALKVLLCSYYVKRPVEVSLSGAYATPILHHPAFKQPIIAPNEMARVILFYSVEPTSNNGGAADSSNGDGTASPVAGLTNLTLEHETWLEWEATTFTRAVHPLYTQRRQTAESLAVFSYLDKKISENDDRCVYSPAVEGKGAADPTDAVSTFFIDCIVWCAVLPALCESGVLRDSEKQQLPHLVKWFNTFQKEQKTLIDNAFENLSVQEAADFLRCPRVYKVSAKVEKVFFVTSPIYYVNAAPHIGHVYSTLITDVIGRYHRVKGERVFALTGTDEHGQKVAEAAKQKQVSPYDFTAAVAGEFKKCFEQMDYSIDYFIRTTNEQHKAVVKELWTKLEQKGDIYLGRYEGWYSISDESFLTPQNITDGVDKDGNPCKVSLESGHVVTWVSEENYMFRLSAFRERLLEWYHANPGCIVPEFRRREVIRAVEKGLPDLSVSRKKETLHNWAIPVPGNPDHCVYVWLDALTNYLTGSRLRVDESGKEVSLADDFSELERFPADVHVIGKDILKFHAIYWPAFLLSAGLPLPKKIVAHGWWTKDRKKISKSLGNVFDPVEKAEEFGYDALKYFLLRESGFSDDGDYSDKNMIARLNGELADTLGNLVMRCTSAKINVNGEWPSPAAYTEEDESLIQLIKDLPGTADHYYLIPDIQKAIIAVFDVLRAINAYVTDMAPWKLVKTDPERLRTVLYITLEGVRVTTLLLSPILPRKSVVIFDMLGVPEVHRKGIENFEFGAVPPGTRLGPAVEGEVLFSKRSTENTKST
As to the kind of experiment: MetRS (T. brucei) enzyme inhibition. Format: biochemical.

A further assay has as its target MetRS (C. parvum) (Cryptosporidium parvum, UniProt Q5CVN0). As to the kind of experiment: MetRS (C. parvum) enzyme inhibition. The format is biochemical. The conditions noted are these: read-out: (C) MetRS (C. parvum) IC50.
Another assay relates to T. cruzi. As to the kind of experiment: T. cruzi growth inhibition. Format: cell-based, Trypanosoma cruzi. The conditions noted are these: Trypanosoma cruzi; read-out: (E) T. cruzi EC50.
Another assay relates to C. parvum. As to the kind of experiment: C. parvum growth inhibition. The format is cell-based, Cryptosporidium parvum. The following applies: Cryptosporidium parvum; read-out: (J) C. parvum EC50.
The test system of assay [3] is S. aureus MRSA (ATCC 33591). As to the kind of experiment: MIC susceptibility testing. The format is cell-based, Staphylococcus aureus. The conditions noted are these: Staphylococcus aureus, MRSA ATCC33591; read-out: (G) MRSA (ATCC33591) MIC. The gist of the method:
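CLSI broth microdilution with two-fold compound dilutions, in triplicate; cells added in medium at 1×10^6 CFUs/mL, DMSO ≤0.5%. Media: MHB for S. aureus, CA-MHB for E. coli and E. faecium, CA-MHB plus 3% laked horse blood for S. pyogenes (5% CO2).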

The next assay deals with T. brucei. As to the kind of experiment: T. brucei growth inhibition. Format: cell-based, Trypanosoma brucei. The following applies: read-out: (D) T. brucei EC50.

MetRS (C. parvum), sequence (Q5CVN0 entry or part of it): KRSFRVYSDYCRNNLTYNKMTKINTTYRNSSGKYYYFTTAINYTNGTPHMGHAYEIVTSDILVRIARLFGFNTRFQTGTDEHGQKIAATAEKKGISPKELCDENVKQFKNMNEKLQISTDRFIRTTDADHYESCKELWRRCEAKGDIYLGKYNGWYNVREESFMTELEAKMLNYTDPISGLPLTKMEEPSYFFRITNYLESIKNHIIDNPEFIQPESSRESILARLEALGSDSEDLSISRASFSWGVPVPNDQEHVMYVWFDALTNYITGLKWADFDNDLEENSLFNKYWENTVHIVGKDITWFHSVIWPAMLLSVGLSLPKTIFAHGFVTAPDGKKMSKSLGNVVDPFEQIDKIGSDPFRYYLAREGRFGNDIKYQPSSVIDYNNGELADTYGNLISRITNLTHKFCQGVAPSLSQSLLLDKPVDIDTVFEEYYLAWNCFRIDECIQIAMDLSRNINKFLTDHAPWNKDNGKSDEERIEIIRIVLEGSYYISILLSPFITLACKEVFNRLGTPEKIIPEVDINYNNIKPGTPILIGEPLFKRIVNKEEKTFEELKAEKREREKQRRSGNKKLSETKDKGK

Consider `O=c1n(Cc2nc3ccc(F)nc3[nH]2)cc(Cc2ccc(Cl)cc2Cl)n1C1CC1` [Compound 2070, 3-cyclopropyl-4-[(2,4-dichlorophenyl)methyl]-1-({5-fluoro-1H-imidazo[4,5-b]pyridin-2-yl}methyl)-2,3-dihydro-1H-imidazol-2-one], for which the “(F) S. aureus (ATCC 29213) MIC” value in assay [1] came out at 0.0371 µg/mL. Besides, the MIC in assay [1] is 0.0609 µg/mL (≈ 0.141 µM); in assay [2], 0.0246 µg/mL (≈ 0.0569 µM). For the same compound, the IC50 on MetRS (T. brucei) and at MetRS (C. parvum) was less than 40 nM each time. Also, the EC50 with T. cruzi is 133 nM; with C. parvum, more than 2000 nM.

Regarding `CCn1c(Cc2ccc(Cl)cc2Cl)cn(Cc2cc3nc(F)ccc3[nH]2)c1=O` [Compound 2112, 5-(2,4-dichlorobenzyl)-1-ethyl-3-((5-fluoro-1H-pyrrolo[3,2-b]pyridin-2-yl)methyl)-1H-imidazol-2(3H)-one], the MIC turned out to be 0.405 µg/mL (≈ 0.966 µM) in assay [3] and 0.254 µg/mL (≈ 0.606 µM) in assay [1]. Also, the IC50 at MetRS (T. brucei) and at MetRS (C. parvum) was less than 40 nM in each case. Further, the EC50 with T. brucei (Trypanosoma brucei) was determined as 9.56 nM; in the assay on T. cruzi, 176 nM; in the assay on C. parvum, 620 nM.

Consider `O=c1n(Cc2nc3nc(Cl)ccc3[nH]2)cc(Cc2ccc(Cl)cc2Cl)n1CC1(O)CC1` [Compound 2225, 1-({5-chloro-1H-imidazo[4,5-b]pyridin-2-yl}methyl)-4-[(2,4-dichlorophenyl)-methyl]-3-[(1-hydroxycyclopropyl)methyl]-2,3-dihydro-1H-imidazol-2-one], for which the “(F) S. aureus (ATCC 29213) MIC” value in assay [1] was 3.02 µg/mL. In addition, the MIC is more than 2.5 µg/mL in assay [1] and 1.52 µg/mL (≈ 3.17 µM) in assay [2]. The IC50 on MetRS (C. parvum) was found to be 49.2 nM. The EC50 with T. brucei (Trypanosoma brucei) is 14.5 nM; with T. brucei it was 26.9 nM; in the assay with T. cruzi it was 245 nM; with C. parvum, 1840 nM.

`COc1ccc(-c2cccc3c2CN(Cc2nc4c(N)ncnc4[nH]2)C3=O)c(Cl)c1` [Compound 2239, 2-((6-amino-9H-purin-8-yl)methyl)-4-(2-chloro-4-methoxyphenyl)isoindolin-1-one]: the MIC in assay [3] and in assay [1] was more than 2 µg/mL each time. Besides, the IC50 against MetRS (T. brucei) and at MetRS (C. parvum) was less than 40 nM in each case. In addition, the results for the EC50 with T. brucei (Trypanosoma brucei), in the assay with T. cruzi and with C. parvum were 267 nM, 3880 nM and more than 2000 nM, respectively.

On to `COc1ccc(Cc2cn(Cc3nc4c(C)c(Cl)ccc4[nH]3)c(=O)n2CC(C)(C)O)c(Cl)c1` [Compound 2248, 4-[(2-chloro-4-methoxyphenyl)methyl]-1-[(5-chloro-4-methyl-1H-1,3-benzodiazol-2-yl)methyl]-3-(2-hydroxy-2-methylpropyl)-2,3-dihydro-1H-imidazol-2-one], for which, in assay [2], the “(I) E. faecium (ATCC 51559) MIC” value was 2.23 µg/mL. In addition, the minimum inhibitory concentration (MIC) in assay [2] was found to be 1.98 µg/mL (≈ 4.05 µM). Further, the IC50 on MetRS (C. parvum) is 40.8 nM. For the same compound, the EC50 with T. brucei (Trypanosoma brucei) is 81.8 nM; in the assay with T. cruzi it was 491 nM; in the assay on C. parvum, more than 2000 nM.

Consider `COc1ccc(-c2nccn3c(=S)n(Cc4nc5nc(Cl)ccc5[nH]4)cc23)c(Cl)c1` [Compound 2250, 2-({5-chloro-1H-imidazo[4,5-b]pyridin-2-yl}methyl)-8-(2-chloro-4-methoxyphenyl)-2H,3H-imidazo[1,5-a]pyrazine-3-thione], for which, in assay [2], the “(I) E. faecium (ATCC 51559) MIC” value was 1.01 µg/mL and the MIC worked out at 1.35 µg/mL (≈ 2.95 µM). In the assay on T. brucei (Trypanosoma brucei), the EC50 came to 28.9 nM.

For `COc1ccc(-c2cccc3c2CN(Cc2nc4nc(C)nc(N)c4[nH]2)C3=O)c(Cl)c1` [Compound 2251, 2-((6-amin0-2-methyl-7H-purin-8-yl)methyl)-4-(2-chloro-4-methoxyphenyl)isoindolin-1-one], the MIC in assay [2] is more than 4 µg/mL. On MetRS (C. parvum), the IC50 is less than 40 nM. For the same compound, the figures for the EC50 in the assay with T. brucei (Trypanosoma brucei), with T. cruzi and in the assay on C. parvum were 166 nM, 811 nM and more than 2000 nM, respectively.
